Assay results published in patent US20070128217A1 (priority 2003, published 2007).

Legend:
[1] = test system: recombinant human anti-SARS-CoV antibody 03-018; type: binding; set-up: Binding of antibody 03-018 to linear peptides of the N protein of SARS-CoV Urbani / Binding of antibody 03-018 to looped/cyclic peptides of the N protein of SARS-CoV Urbani: unit not given here
[2] = test system: antibodies in sera from SARS patients (sera 1a, 1b, 2, 6, 37, 62, London, SARS-yellow, SARS-green); type: binding, human; set-up: Binding of serum 6 to linear peptides of protein X1 of SARS-CoV Urbani / Binding of serum 37 to linear peptides of protein X1 of SARS-CoV Urbani / Binding of serum 6 to looped/cyclic peptide (PEPSCAN-ELISA) / Binding of serum 37 to looped/cyclic peptide (PEPSCAN-ELISA) / Binding of serum 37 to looped/cyclic peptides of protein X1 of SARS-CoV Urbani / Binding of serum 6 to linear peptides of protein X2 / Binding of serum 37 to linear peptides of protein X2 / Binding of serum 37 to looped/cyclic peptides of protein X2 of SARS-CoV Urbani / Binding of serum 6 to linear peptides of protein M of SARS-CoV Urbani / Binding of serum 37 to linear peptides of protein M of SARS-CoV Urbani / Binding of serum 6 to looped/cyclic peptides of protein M of SARS-CoV Urbani / Binding of serum 37 to looped/cyclic peptides of protein M of SARS-CoV Urbani / Binding of serum 6 to linear peptides of protein X3 of SARS-CoV Urbani / Binding of serum 37 to linear peptides of protein X3 of SARS-CoV Urbani / Binding of serum 37 to looped/cyclic peptides of protein X3 of SARS-CoV Urbani / Binding of serum 6 to linear peptides of protein X4 of SARS-CoV Urbani / Binding of serum 37 to linear peptides of protein X4 of SARS-CoV Urbani / Binding of serum 37 to looped/cyclic peptides of protein X4 of SARS-CoV Urbani / Binding of serum 6 to linear peptides of protein X5 of SARS-CoV Urbani / Binding of serum 37 to linear peptides of protein X5 of SARS-CoV Urbani / Binding of serum 37 to looped/cyclic peptides of protein X5 of SARS-CoV Urbani / Binding of serum 6 to linear peptides of protein N of SARS-CoV Urbani / Binding of serum 37 to linear peptides of protein N of SARS-CoV Urbani / Binding of serum 6 to linear peptide (PEPSCAN-ELISA) / Binding of serum 1a to looped/cyclic peptides of protein N of SARS-CoV Urbani / Binding of serum 1b to looped/cyclic peptides of protein N of SARS-CoV Urbani / Binding of serum 2 to looped/cyclic peptides of protein N of SARS-CoV Urbani / Binding of serum 6 to looped/cyclic peptides of protein N of SARS-CoV Urbani / Binding of serum 37 to looped/cyclic peptides of protein N of SARS-CoV Urbani / Binding of serum 62 to looped/cyclic peptides of protein N of SARS-CoV Urbani / Binding of serum London to looped/cyclic peptides of protein N of SARS-CoV Urbani / Binding of serum SARS-green to looped/cyclic peptides of protein N of SARS-CoV Urbani: unit not given here
[3] = test system: control sera (pooled serum of ten healthy LUMC hospital workers; commercial negative donor pooled serum from the Dutch bloodbank); type: binding, human; set-up: Binding of Control serum LUMC to linear peptides / Binding of Control serum Blood-bank to linear peptides / Binding of Control serum LUMC to looped peptides / Binding of Control Serum Blood-Bank to Looped peptides / Binding of Control serum LUMC to linear peptides of the protein M of SARS-CoV Urbani / Binding of Control serum Blood-bank to linear peptides of the protein M of SARS-CoV Urbani / Binding of Control serum LUMC to looped peptides of the protein M of SARS-CoV Urbani / Binding of Control Serum Blood-Bank to Looped peptides of the protein M of SARS-CoV Urbani: unit not given here
[4] = test system: rabbit serum obtained by immunizing a rabbit with the SARS-CoV strain Frankfurt 1; type: binding; set-up: Binding of a rabbit serum to linear peptides / Binding of a rabbit serum to looped peptides / Rabbit serum linear peptides / Rabbit serum looped peptides / Binding of a rabbit serum to linear peptides of protein N of SARS-CoV Urbani (Rabbit serum linear peptides) / Binding of a rabbit serum to looped/cyclic peptides of protein N of SARS-CoV Urbani (Rabbit serum looped peptides): unit not given here

Row | Sequence | Binding of antibody 03-018 to linear peptides of the N protein of SARS-CoV Urbani [1] | Binding of antibody 03-018 to looped/cyclic peptides of the N protein of SARS-CoV Urbani [1] | Binding of serum 1a to linear peptide (PEPSCAN-ELISA) [2] | Binding of serum 1a to looped/cyclic peptides of protein N of SARS-CoV Urbani [2] | Binding of serum 1b to linear peptide (PEPSCAN-ELISA) [2] | Binding of serum 1b to looped/cyclic peptides of protein N of SARS-CoV Urbani [2] | Binding of serum 2 to linear peptide (PEPSCAN-ELISA) [2] | Binding of serum 2 to looped/cyclic peptides of protein N of SARS-CoV Urbani [2] | Binding of serum 6 to looped/cyclic peptides of protein N of SARS-CoV Urbani [2] | Binding of serum 37 to looped/cyclic peptides of protein N of SARS-CoV Urbani [2] | Binding of serum 62 to looped/cyclic peptides of protein N of SARS-CoV Urbani [2] | Binding of serum London to looped/cyclic peptides of protein N of SARS-CoV Urbani [2] | Binding of serum SARS-green to looped/cyclic peptides of protein N of SARS-CoV Urbani [2] | Binding of serum SARS-yellow to looped/cyclic peptides of protein N of SARS-CoV Urbani [2] | Binding of Control Serum Blood-Bank to Looped peptides [3] | Binding of Control serum Blood-bank to linear peptides [3] | Binding of Control serum LUMC to linear peptides [3] | Binding of Control serum LUMC to looped peptides [3] | Binding of a rabbit serum to linear peptides of protein N of SARS-CoV Urbani (Rabbit serum linear peptides) [4] | Binding of a rabbit serum to looped/cyclic peptides of protein N of SARS-CoV Urbani (Rabbit serum looped peptides) [4] | further results
1 | QQQGQTVTKKSAAEA | 0.1 | 0.2 | 0.6 | 0.5 | 0.2 | 0.3 | 0.5 | 0.7 | 0.5 | 0.6 | 0.7 | 0.6 | 0.9 | 0.6 | 0.6 | 0.6 | 0.5 | 0.6 | 0.0 | 0.0 | Binding of serum 6 to linear peptide (PEPSCAN-ELISA) [2]: 0.2; Binding of serum 37 to linear peptide (PEPSCAN-ELISA) [2]: 0.5; Binding of serum 62 to linear peptide (PEPSCAN-ELISA) [2]: 0.5; Binding of serum London to linear peptide (PEPSCAN-ELISA) [2]: 0.6; Binding of serum SARS-green to linear peptide (PEPSCAN-ELISA) [2]: 0.3; Binding of serum SARS-yellow to linear peptide (PEPSCAN-ELISA) [2]: 0.6
2 | QQQQGQTVTKKSAAE | 0.1 | 0.2 | 0.8 | 0.3 | 0.3 | 0.1 | 0.7 | 0.3 | 0.1 | 0.3 | 0.2 | 0.2 | 0.0 | 0.1 | 0.2 | 0.6 | 0.6 | 0.2 | 0.3 | 0.0 | Binding of serum 6 to linear peptide (PEPSCAN-ELISA) [2]: 0.2; Binding of serum 37 to linear peptide (PEPSCAN-ELISA) [2]: 0.7; Binding of serum 62 to linear peptide (PEPSCAN-ELISA) [2]: 0.7; Binding of serum London to linear peptide (PEPSCAN-ELISA) [2]: 0.7; Binding of serum SARS-green to linear peptide (PEPSCAN-ELISA) [2]: 0.3; Binding of serum SARS-yellow to linear peptide (PEPSCAN-ELISA) [2]: 0.9
3 | QRQKKQPTVTLLPAA | 0.1 | 0.3 | – | – | – | – | – | – | – | – | – | – | – | – | – | – | – | – | 0.2 | 0.7 | Binding of serum 1a to linear peptides of protein N of SARS-CoV Urbani [2]: 0.3; Binding of serum 1b to linear peptides of protein N of SARS-CoV Urbani [2]: 0.1; Binding of serum 2 to linear peptides of protein N of SARS-CoV Urbani [2]: 0.3; Binding of serum 6 to linear peptides of protein N of SARS-CoV Urbani [2]: 0.2; Binding of serum 37 to linear peptides of protein N of SARS-CoV Urbani [2]: 0.7; Binding of serum 62 to linear peptides of protein N of SARS-CoV Urbani [2]: 0.8; Binding of serum London to linear peptides of protein N of SARS-CoV Urbani [2]: 0.6; Binding of serum SARS-green to linear peptides of protein N of SARS-CoV Urbani [2]: 0.7; Binding of serum SARS-yellow to linear peptides of protein N of SARS-CoV Urbani [2]: 0.6; Recognition of the peptide by sera of SARS-CoV infected individuals, and form (linear, looped/cyclic) in which it is recognized [2]: recognized in looped/cyclic form; Control Serum Blood-Bank Looped peptides [3]: 1.1; Control serum Blood-bank linear peptides [3]: 0.8; Control serum LUMC linear peptides [3]: 0.7; Control serum LUMC looped peptides [3]: 0.8
4 | QRSAPRITFGGPTDS | – | – | – | 0.4 | – | 0.3 | – | 0.4 | 0.4 | 0.7 | 0.5 | 0.9 | 0.4 | 0.6 | 0.7 | 0.6 | 0.5 | 0.7 | 0.3 | 1.2 | Recognition of the peptide by antibody 03-018 [1]: recognized; Binding of serum 1a to linear peptides of protein N of SARS-CoV Urbani [2]: 0.2; Binding of serum 1b to linear peptides of protein N of SARS-CoV Urbani [2]: 0.1; Binding of serum 2 to linear peptides of protein N of SARS-CoV Urbani [2]: 0.1; Binding of serum 6 to linear peptides of protein N of SARS-CoV Urbani [2]: 0.1; Binding of serum 37 to linear peptides of protein N of SARS-CoV Urbani [2]: 0.6; Binding of serum 62 to linear peptides of protein N of SARS-CoV Urbani [2]: 0.6; Binding of serum London to linear peptides of protein N of SARS-CoV Urbani [2]: 0.5; Binding of serum SARS-green to linear peptides of protein N of SARS-CoV Urbani [2]: 0.2; Binding of serum SARS-yellow to linear peptides of protein N of SARS-CoV Urbani [2]: 0.5
